Entries after “also recorded” stand apart in the source; their conditions may differ. One block for each substance: values may come before it. Non-standard residues stand in square brackets, D forms with d. No end group written: not given here. Aib = CC(C)(N)C(=O)O
Experiments:
[1] = CD (circular dichroism) spectroscopy of α-helix structure; type: physicochemical
Description: To evaluate the structures of a linear plasmid DNA and peptides, CD spectra were analyzed using a Chirascan CD spectrometer (Applied Photophysics, UK). […] The final concentration of the linear plasmid DNA was 30 ng/μL. All the samples were dissolved in H2O. For the formation of the artificial chromosome, a mixture of the peptide and the DNA was incubated for 12 days or longer. Scanning was performed using a 2-mm path-length cuvette. Each scan was repeated three times and averaged. MRE (mean residue ellipticity) was calculated based on the number of amino acid residues.
CD (circular dichroism) spectroscopy was performed as follows.
The CD spectra were analyzed using a Chirascan CD spectrometer (Applied Photophysics, UK). […] All the samples were dissolved in H2O. Each scan was repeated three times using a 2-mm path-length cuvette and averaged. MRE (mean residue ellipticity) was calculated based on the number of amino acid residues.

[2] = AFM analysis of self-assembled peptide complexes; type: physicochemical; conditions: for AFM morphology / Average diameter (nm): Table 12, self-assembled structure; for AFM morphology: 25 μM in distilled water
Description: AFM was performed using an NX10 system (Park Systems, Korea) in a non-contact mode with PPP-NCHR AFM probes (Nanosensors, Switzerland). The DNA concentration ranged from 1 to 30 ng/μL and the peptide concentration ranged from 1 to 32 μM (in H2O). 2 μL of the sample solution was cast onto a freshly cleaved mica surface and dried. The data obtained by the SmartScan program (Park Systems, Korea) was analyzed using the XEI program (Park Systems, Korea).
The CD spectroscopy was performed in the same manner as in Test Example 2 and the AFM was performed using the NX10 system (Park Systems, Korea) in a non-contact mode with PPP-NCHR AFM probes (Nanosensors, Switzerland). The peptide complex concentration ranged from 1 to 32 μM (in H2O). 2 μL of the sample solution was cast onto a freshly cleaved mica surface and dried. The data obtained by the SmartScan program (Park Systems, Korea) were analyzed using the XEI program (Park Systems, Korea).
The peptide complexes of Examples 37-40 were imaged by AFM. 25 μM of the peptide complex was dissolved in distilled water, sonicated for 5 minutes, incubated overnight and dropped on mica for measurement.

[3] = Table 13, cyclic peptide complexes
[4] = Table 11, peptide complexes of Examples 37-97
[5] = Table 14, coil-rod-coil peptide complexes
[6] = Table 10, hydrophobic peptides of Examples 1-36
[7] = Table 9, linear and cyclic αm-PEG10 peptide complexes, in H2O

[θ]222/[θ]208 [1, 3]: 0.95
Substance: (PEG2)5RRRRRR(PEG2)5WAUAUAUAUAUAUAUAU [Example 111]

θ222 nm/θ208 nm ratio [1, 4]: 0.58 | AFM morphology [2]: Not assembled
Substance: (PEG8)2 AUAUAUAUA [Example 55]

θ222 nm/θ208 nm ratio [1, 4]: 1.11 | Average diameter (nm) [2]: 20-40 nm | AFM morphology [2]: Micelle
Substance: (PEG8)2 AUAUAUAUAUAUAUA [Example 56]

[θ]222/[θ]208 [1, 5]: 0.78
Substance: (PEG8)2AUAUAUAUAUAUAUA(PEG8)2 [Example 124]

[θ]222/[θ]208 [1, 5]: 1.21 | [θ]222/[θ]203 ratio ([1]; depending on concentration): 1.1-1.2 | self-assembly behavior in an aqueous solvent ([2]; AFM): did not self-assemble
Substance: (PEG8)2AUAUAUAUAUAUAUAUAUAUA(PEG8)2 [Example 125]

[θ]222/[θ]208 [1, 5]: 1.06
Substance: (PEG8)2AUAUAUAUAUAUAUAUAUAUA(PEG8) [Example 122]

[θ]222/[θ]208 [1, 5]: 1.18
Substance: (PEG8)3AUAUAUAUAUAUAUAUAUAUA(PEG8)3 [Example 126]

[θ]222/[θ]208 [1, 5]: 0.83
Substance: (PEG8)AUAUAUAUAUAUAUA(PEG8)2 [Example 120]

[θ]222/[θ]208 [1, 5]: 1.04
Substance: (PEG8)AUAUAUAUAUAUAUAUAUAUA(PEG8)2 [Example 121]

[θ]222/[θ]208 [1, 5]: 1.2
Substance: (PEG10)2AUAUAUAUAUAUAUAUAUAUA(PEG10)2 [Example 127]

θ222 nm/θ208 nm ratio [1, 6]: 1.13
Substance: AUAUAUAUAUAUAUA [Example 8]

θ222 nm/θ208 nm ratio [1, 4]: 1.11 | Average diameter (nm) [2]: 20-30 nm | AFM morphology [2]: Micelle
Substance: AUAUAUAUAUAUAUA(PEG8)2 [Example 53]

θ222 nm/θ208 nm ratio [1, 4]: 1.18 | Average diameter (nm) [2]: 20-30 nm | AFM morphology [2]: Micelle
Substance: EEAUAUAUAUAUAUAUAUAUAUA(PEG8)2 [Example 91]

θ222 nm/θ208 nm ratio [1, 4]: 1.2 | Average diameter (nm) [2]: 200 nm | AFM morphology [2]: Vesicle
Substance: EEEAUAUAUAUAUAUAUAUAUAUA(PEG8)2 [Example 92]

[θ]222/[θ]208 [1, 5]: 1.15
Substance: GSGAUAUAUAUAUAUAUAUAUAUAGSG [Example 116]

[θ]222/[θ]208 [1, 5]: 1.07
Substance: GSGSGAUAUAUAUAUAUAUAUAUAUAGSGSG [Example 117]

minimum at 222 and 208 nm in the spectra ([1]; Table 11): no minimum was observed
Substance: RAUAUAUAUAUAUAUAUAUAUAGRGDRGDRGDRGDG [Example 67]

θ222 nm/θ208 nm ratio [1, 4]: 1.1
Substance: RGDRGDAUAUAUAUAUAUAUAUAUAUARR [Example 73]

θ222 nm/θ208 nm ratio [1, 4]: 1.11
Substance: RGDRGDRGDAUAUAUAUAUAUAUAUAUAUARR [Example 74]

minimum at 222 and 208 nm in the spectra ([1]; Table 11): no minimum was observed
Substance: RGDRGDRGDRGDAUAUAUAUAUAUAUAUAUAUAR [Example 72]

minimum at 222 and 208 nm in the spectra ([1]; Table 11): no minimum was observed
Substance: RGDRGDRGDRGDAUAUAUAUAUAUAUAUAUAUARR [Example 75]

[θ]222/[θ]208 [1, 7]: 0.88 | θ222 nm/θ208 nm ratio [1, 4]: 0.88
Substance: WAUAUAUAUAUAU(PEG2)5 [Example 48]

[θ]222/[θ]208 [1, 7]: 0.95 | [θ]222/[θ]208 [1, 3]: 0.95
Substance: WAUAUAUAUAUAU(PEG2)5 [Example 100]

[θ]222/[θ]208 [1, 7]: 1.01 | [θ]222/[θ]208 [1, 3]: 1.01
Substance: WAUAUAUAUAUAUAU(PEG2)5 [Example 101]

θ222 nm/θ208 nm ratio [1, 4]: 1.19
Substance: WAUAUAUAUAUAUAUAUAU(PEG2)5 [Example 51]

[θ]222/[θ]208 [1, 3]: 1.21
Substance: WAUAUAUAUAUAUAUAUAU(PEG2)5 [Example 103]

[θ]222/[θ]208 [1, 3]: 0.71
Substance: WAUAUAUAUAUAUAUGHHHHHHHHHHGRGDRGDRGDG [Example 107]

[θ]222/[θ]208 [1, 3]: 0.65
Substance: WAUAUAUAUAUAUGHHHHHHHHHHGRGDRGDRGDG [Example 106]

[θ]222/[θ]208 [1, 3]: 0.2
Substance: WAUAUAUAUGHHHHHHHHHHGRGDRGDRGDG [Example 104]

Second part, the substance before the results:

Substance: (PEG8)2 AUAUAUAUAUAUAUAUAUAUA [Example 57]
θ222 nm/θ208 nm ratio [1, 4]: 1.22 | Average diameter (nm) [2]: 30-80 nm | AFM morphology [2]: Vesicle

Substance: (PEG8)2AUAUAUAUA(PEG8)2 [Example 123]
[θ]222/[θ]208 [1, 5]: 0.6

Substance: (PEG8)AUAUAUAUA(PEG8)2 [Example 119]
[θ]222/[θ]208 [1, 5]: 0.61

Substance: AUAUAUAUA [Example 2]
θ222 nm/θ208 nm ratio [1, 6]: 0.72

Substance: AUAUAUAUA(PEG8)2 [Example 52]
θ222 nm/θ208 nm ratio [1, 4]: 0.54 | AFM morphology [2]: Not assembled

Substance: AUAUAUAUAUAUAUAUAUAUA [Example 14]
θ222 nm/θ208 nm ratio [1, 6]: 1.26 | α-helix structure (in words) ([1]; from CD spectra): monomeric, nonpolar and perfect α-helix (MNP-helix) structure

Substance: AUAUAUAUAUAUAUAUAUAUA(PEG8)2 [Example 54]
θ222 nm/θ208 nm ratio [1, 4]: 1.2 | Average diameter (nm) [2]: 20-90 nm | AFM morphology [2]: Micelle, vesicle

Substance: EAUAUAUAUAUAUAUAUAUAUA(PEG8)2 [Example 90]
θ222 nm/θ208 nm ratio [1, 4]: 1.21 | Average diameter (nm) [2]: 20-30 nm | AFM morphology [2]: Micelle

Substance: EAUAUAUAUAUAUAUAUAUAUAGSGSGSGS (EA[Aib]A[Aib]A[Aib]A[Aib]A[Aib]A[Aib]A[Aib]A[Aib]A[Aib]A[Aib]AGSGSGSGS) [Example 95]
θ222 nm/θ208 nm ratio [1, 4]: 1.2 | Average diameter (nm) [2]: 240-280 nm | AFM morphology [2]: Vesicle

Substance: EAUAUAUAUAUAUAUAUAUAUARGDRGDRGD (EA[Aib]A[Aib]A[Aib]A[Aib]A[Aib]A[Aib]A[Aib]A[Aib]A[Aib]A[Aib]ARGDRGDRGD) [Example 94]
θ222 nm/θ208 nm ratio [1, 4]: 1.06

Substance: EEEEAUAUAUAUAUAUAUAUAUAUA(PEG8)2 (EEEEAXAXAXAXAXAXAXAXAXAXA; (PEG8)2 C-terminal; SITE 6 2-aminoisobutyric acid; SITE 8 2-aminoisobutyric acid; SITE 10 2-aminoisobutyric acid; SITE 12 2-aminoisobutyric acid; SITE 14 2-aminoisobutyric acid; SITE 16 2-aminoisobutyric acid; SITE 20 2-aminoisobutyric acid; SITE 18 2-aminoisobutyric acid; SITE 22 2-aminoisobutyric acid; SITE 24 2-aminoisobutyric acid) [Example 93]
θ222 nm/θ208 nm ratio [1, 4]: 1.16 | Average diameter (nm) [2]: 180-360 nm | AFM morphology [2]: Vesicle

Substance: Example 37: peptide complex (Wαm-RGD), SEQ ID NO 37 (A[Aib]A[Aib]A[Aib]A[Aib]AGRGDRGDG)
θ222 nm/θ208 nm ratio [1, 4]: 0.28 | AFM morphology [2]: Irregular vesicle

Substance: Example 38: peptide complex (Wαm-RGD), SEQ ID NO 38 (L[Aib]L[Aib]L[Aib]L[Aib]LGRGDRGDG)
θ222 nm/θ208 nm ratio [1, 4]: 0.44 | self-assembly behavior in an aqueous solvent ([2]; AFM): spherical particles | Average diameter (nm) [2]: 50-200 nm | AFM morphology [2]: Vesicle

Substance: Example 39: peptide complex (Wαm-RGD), SEQ ID NO 39 (A[Aib]A[Aib]A[Aib]A[Aib]A[Aib]A[Aib]A[Aib]AGRGDRGDG)
θ222 nm/θ208 nm ratio [1, 4]: 0.7 | average diameter ([2]; AFM): 20 nm | self-assembly behavior in an aqueous solvent ([2]; AFM): self-assembled into spherical particles such as micelles; also recorded: micelle particles | average height ([2]; AFM, FIG. 80): 2-4 nm | length of micelle particles ([2]; AFM, FIG. 80): 6-10 nm | Average diameter (nm) [2]: 20 nm | AFM morphology [2]: Micelle

Substance: Example 43: peptide complex (Wαm-RGD, Wαm-GS), SEQ ID NO 43 (AXAXAXAXAXAXAXAXAXAXAGSGSG; SITE 2 2-aminoisobutyric acid; SITE 4 2-aminoisobutyric acid; SITE 6 2-aminoisobutyric acid; SITE 8 2-aminoisobutyric acid; SITE 10 2-aminoisobutyric acid; SITE 12 2-aminoisobutyric acid; SITE 14 2-aminoisobutyric acid; SITE 16 2-aminoisobutyric acid; SITE 18 2-aminoisobutyric acid; SITE 20 2-aminoisobutyric acid)
θ222 nm/θ208 nm ratio [1, 4]: 1.15

Substance: Example 45: peptide complex (Wαm-RGD, Wαm-GS), SEQ ID NO 45 (A[Aib]A[Aib]A[Aib]A[Aib]A[Aib]A[Aib]A[Aib]A[Aib]A[Aib]A[Aib]AGSGSGSGSG)
θ222 nm/θ208 nm ratio [1, 4]: 1.09

Substance: GSGSGSGSGAUAUAUAUAUAUAUAUAUAUAGSGSGSGSG [Example 118]
[θ]222/[θ]208 [1, 5]: 1.02

Substance: WAUAUAUAU(PEG2)5 [Example 46]
θ222 nm/θ208 nm ratio [1, 4]: 0.72

Substance: WAUAUAUAUAUAUAU(PEG2)5 [Example 49]
[θ]222/[θ]208 [1, 7]: 1.05 | θ222 nm/θ208 nm ratio [1, 4]: 1.05

Substance: WAUAUAUAUAUAUAUAU(PEG2)5 [Example 50]
[θ]222/[θ]208 [1, 7]: 1.10 | θ222 nm/θ208 nm ratio [1, 4]: 1.10

Substance: WAUAUAUAUAUAUAUAU(PEG2)5RGDRGD(PEG2)5 [Example 110]
[θ]222/[θ]208 [1, 3]: 1.06

Substance: WAUAUAUAUAUAUAUAUAUGHHHHHHHHHHGRGDRGDRGDG [Example 109]
[θ]222/[θ]208 [1, 3]: 0.89

Substance: WAUAUAUAUAUAUAUAUGHHHHHHHHHHGRGDRGDRGDG [Example 108]
[θ]222/[θ]208 [1, 3]: 0.83

Substance: WAUAUAUAUAUGHHHHHHHHHHGRGDRGDRGDG [Example 105]
[θ]222/[θ]208 [1, 3]: 0.38
